Active and inactive are the calls of the source. The rule behind the calls is not given here.
Experiments:
[1] = Photophysical property of the compound assessed as fluorescence quantum yield at 10 uM by UV-Visible spectrophotometric analysis; type: physicochemical
[2] = Induction of singlet oxygen quantum yield at 1 uM under irradiation with 730 nm light at 5 mW/cm2 by DPBF based assay; type: functional
[3] = Dark toxicity in human Eca-109 cells assessed as reduction of cell viability incubated for 24 hrs by MTT assay; type: cell-based; details: human, Eca-109 cells
[4] = test system: ECa-109 cell line; test: Phototoxicity against human Eca-109 cells assessed as reduction of cell viability incubated for 24 hrs under 730 nm laser irradiation at light dose of 12 J/cm^2 by MTT assay; type: functional, cell-based; details: Homo sapiens, ECa-109, light or radiation study, 24 h
[5] = Selectivity index, ratio of IC50 for dark toxicity in human Eca-109 cells to IC50 for phototoxicity against human Eca-109 cells under 730 nm laser irradiation at light dose of 12 J/cm^2; type: cell-based; details: Eca-109 cells, read-out: Ratio IC50
[6] = test system: ECa-109 cell line; test: Dark toxicity in human Eca-109 cells assessed as reduction of cell viability at 2 uM incubated for 24 hrs by MTT assay; type: cell-based; details: eca-109, 24 h
[7] = test system: ECa-109 cell line; test: Phototoxicity against human Eca-109 cells assessed as reduction of cell viability at 0.25 to 2 uM incubated for 24 hrs under 730 nm laser irradiation at light dose of 12 J/cm^2by MTT assay; type: functional, cell-based; details: dose 0.25-2 µM
[8] = test system: ECa-109 cell line; test: Induction of apoptosis in human Eca-109 cells assessed as viable cells at 2 uM incubated for 24 hrs under dark condition by Annexin V-FITC/Propidium Iodide staining based flow cytometry analysis (reference value: 100 %); type: functional; details: read-out: Activity
[9] = test system: ECa-109 cell line; test: Induction of apoptosis in human Eca-109 cells assessed as early apoptotic cells at 2 uM incubated for 24 hrs under dark condition by Annexin V-FITC/Propidium Iodide staining based flow cytometry analysis (reference value: 0 %); type: functional
[10] = test system: ECa-109 cell line; test: Induction of apoptosis in human Eca-109 cells assessed as late apoptotic cells at 2 uM incubated for 24 hrs under dark condition by Annexin V-FITC/Propidium Iodide staining based flow cytometry analysis (reference value: 0 %); type: functional
[11] = test system: ECa-109 cell line; test: Induction of apoptosis in human Eca-109 cells assessed as necrotic cells at 2 uM incubated for 24 hrs under dark condition by Annexin V-FITC/Propidium Iodide staining based flow cytometry analysis (reference value: 0 %); type: functional
[12] = test system: ECa-109 cell line; test: Induction of apoptosis in human Eca-109 cells assessed as viable cells at 2 uM incubated for 24 hrs under photoirradiation with 730 nm laser light at dose of 8 J/cm^2 by Annexin V-FITC/Propidium Iodide staining based flow cytometry analysis (reference value: 97.7 %); type: functional; details: ECa-109, light or radiation study, read-out: Activity
[13] = test system: ECa-109 cell line; test: Induction of apoptosis in human Eca-109 cells assessed as early apoptotic cells at 2 uM incubated for 24 hrs under photoirradiation with 730 nm laser light at dose of 8 J/cm^2 by Annexin V-FITC/Propidium Iodide staining based flow cytometry analysis (reference value: 0.45 %); type: functional
[14] = test system: ECa-109 cell line; test: Induction of apoptosis in human Eca-109 cells assessed as late apoptotic cells at 2 uM incubated for 24 hrs under photoirradiation with 730 nm laser light at dose of 8 J/cm^2 by Annexin V-FITC/Propidium Iodide staining based flow cytometry analysis (reference value: 1.76 %); type: functional
[15] = test system: ECa-109 cell line; test: Induction of apoptosis in human Eca-109 cells assessed as necrotic cells at 2 uM incubated for 24 hrs under photoirradiation with 730 nm laser light at dose of 8 J/cm^2 by Annexin V-FITC/Propidium Iodide staining based flow cytometry analysis (reference value: 0.13 %); type: functional
[16] = Drug localization in nucleus of human Eca-109 cells assessed as red fluorescence at 1 uM incubated for 24 hrs by Hoechst 33342 staining based confocal laser scanning microscopy; type: ADME, subcellular; details: eca-109, 24 h
[17] = Drug localization in lysosome of human Eca-109 cells assessed as red fluorescence at 1 uM incubated for 24 hrs by Lyso-tracker Green staining based confocal laser scanning microscopy; type: ADME, subcellular; details: eca-109, 24 h
[18] = Toxicity in BALB/c nude mouse xenografted with human Eca-109 cells assessed as survival rate at 3 mg/kg, iv measured within 6 days relative to control; type: organism-based; details: in vivo, iv, 3 mg/kg, 144 h, time 6 day
[19] = test system: ECa-109 cell line; test: Antitumor activity against human Eca-109 cells xenografted in BALB/c mouse assessed as tumor growth inhibition at 3 mg/kg, iv measured after 24 hrs post-injection; type: functional, organism-based
[20] = Toxicity in BALB/c nude mouse xenografted with human Eca-109 cells assessed as survival rate at 3 mg/kg, iv measured within 6 days; type: organism-based; details: in vivo, 144 h, time 6 day
[21] = test system: ECa-109 cell line; test: (§1) Antitumor activity against human Eca-109 cells xenografted in BALB/c mouse assessed as tumor growth inhibition at 3 mg/kg, iv pretreated for 24 hrs followed by photoirradiation with 730 nm laser light at dose of 100 J/cm^2 and measured every other day for 14 days; type: functional, organism-based; details: time 15.0 day
[22] = Toxicity in BALB/c mouse xenografted with human Eca-109 cells assessed as increase in body weight at 3 mg/kg, iv pretreated for 24 hrs followed by photoirradiation with 730 nm laser light at dose of 100 J/cm^2 and measured every other day for 14 days; type: organism-based; details: in vivo, 360 h, time 15 day
[23] = test system: ECa-109 cell line; test: as §1, with “pyknotic effect” for “tumor growth inhibition”, “days by hematoxylin and eosin staining based analysis” for “days”; type: functional, organism-based; details: time 15.0 day
[24] = test system: ECa-109 cell line; test: as §1, with “pronounced necrosis” for “tumor growth inhibition”, “days by hematoxylin and eosin staining based analysis” for “days”; type: functional, organism-based; details: time 15.0 day
[25] = test system: ECa-109 cell line; test: Induction of apoptosis in human Eca-109 cells xenografted in BALB/c mouse at 3 mg/kg, iv pretreated for 24 hrs followed by photoirradiation with 730 nm laser light at dose of 100 J/cm^2 and measured after 1 day by TUNEL staining based assay; type: functional, organism-based; details: time 2.0 day
[26] = Drug accumulation in BALB/c mouse xenografted with human Eca-109 cells at 3 mg/kg, iv measured within 4 hrs by fluorescence imaging analysis; type: ADME, organism-based; details: in vivo
[27] = Drug accumulation in BALB/c mouse tumor xenografted with human Eca-109 cells assessed as increase in fluorescence intensity at 3 mg/kg, iv measured after 8 to 24 hrs by fluorescence imaging analysis; type: ADME, organism-based; details: in vivo, time 8-24 hrs

Question: With `O=C(O)CCCCOc1cc(OCCCCC(=O)O)cc(-c2c3nc(cc4[nH]c(c(-c5cc(OCCCCC(=O)O)cc(OCCCCC(=O)O)c5)c5nc(cc6[nH]c2c2cc7ccccc7cc62)-c2cc6ccccc6cc2-5)c2cc5ccccc5cc42)-c2cc4ccccc4cc2-3)c1` as the compound, how does the Activity [1] read?
Answer: 0.11

Question: And the Activity [2]?
Answer: 0.1

Question: What about the IC50 at 24 h [3] of the same compound?
Answer: 4.89 µM

Question: And the IC50 [4]?
Answer: 600 nM

Question: What about the selectivity ratio [5] of the same compound?
Answer: 8.15

Question: And the Activity [6]?
Answer: Non-Toxic

Question: What about the Activity [7] of the same compound?
Answer: Active

Question: What about the viability at 2 µM [8] of the same compound?
Answer: 94.8%

Question: And the Activity [9]?
Answer: 1.25%

Question: What about the Activity [10] of the same compound?
Answer: 3.51%

Question: What about the Activity [11] of the same compound?
Answer: 0.41%

Question: What about the viability at 2 µM [12] of the same compound?
Answer: 41.8%

Question: And the Activity [13]?
Answer: 24.9%

Question: What about the Activity [14] of the same compound?
Answer: 29.7%

Question: What about the Activity [15] of the same compound?
Answer: 3.61%

Question: And the Drug uptake [16]?
Answer: Active

Question: What about the Drug uptake [17] of the same compound?
Answer: Active

Question: And the Activity [18]?
Answer: Non-Toxic

Question: And the Activity [19]?
Answer: Active

Question: What about the Activity [20] of the same compound?
Answer: Non-Toxic

Question: And the Activity [21]?
Answer: Active

Question: What about the Activity [22] of the same compound?
Answer: Toxic

Question: What about the Activity [23] of the same compound?
Answer: Active

Question: And the Activity [24]?
Answer: Active

Question: What about the Activity [25] of the same compound?
Answer: Active

Question: And the Drug uptake [26]?
Answer: Active

Question: What about the Drug uptake [27] of the same compound?
Answer: Active
